How the values were obtained:
[1] = target: T1, rat ASIC1a (Rattus norvegicus, UniProt P55926); test: Whole-cell patch clamp: inhibition of acid-induced current in CHO cells stably expressing rat ASIC1a; type: cell-based; conditions: 30 µM
T1 construct: expressed in transfected cells
T1 sequence (P55926 1-526): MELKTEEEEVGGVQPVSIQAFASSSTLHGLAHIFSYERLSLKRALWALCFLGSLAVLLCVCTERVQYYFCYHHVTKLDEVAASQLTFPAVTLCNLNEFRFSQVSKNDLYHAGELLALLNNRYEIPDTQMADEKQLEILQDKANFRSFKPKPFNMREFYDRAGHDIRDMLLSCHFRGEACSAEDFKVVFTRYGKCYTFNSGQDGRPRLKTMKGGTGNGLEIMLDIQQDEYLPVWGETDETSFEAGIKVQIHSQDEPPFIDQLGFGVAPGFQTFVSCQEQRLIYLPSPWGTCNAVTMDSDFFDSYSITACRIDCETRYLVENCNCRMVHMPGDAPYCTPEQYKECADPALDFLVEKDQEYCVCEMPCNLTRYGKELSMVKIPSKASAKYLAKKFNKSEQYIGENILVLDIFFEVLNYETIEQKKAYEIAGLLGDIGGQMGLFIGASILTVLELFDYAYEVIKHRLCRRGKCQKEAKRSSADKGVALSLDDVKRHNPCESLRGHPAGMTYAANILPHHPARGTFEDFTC
Description: (§1) Chinese Hamster Ovary (CHO) cells stably expressing rat ASIC1a were cultured in Ham’s F12, supplemented with 10% FBS, 1% penicillin–streptomycin and 500 µg/mL G418 and incubated at 37 °C with 5% CO2. Transient transfections of rASIC1a and cASIC1 wild-type or mutant channels in CHO cells were performed with Lipofectamine 3000 (Thermo Fisher Scientific) according to the manufacturer’s recommendations. The green fluorescent protein (GFP) cDNA (at 1/10 the amount of channel cDNA) was co-transfected with channel cDNA to aid the identification of transfected cells under the microscope in patch clamp experiments. All cDNAs were sequence verified.
(§2) Cells were freshly dissociated with CellStripper (Corning) and dispersed in a chamber on the stage of an inverted microscope. Upon formation of the whole-cell conformation, the cell was lifted from the bottom of the chamber and placed at the tip of a tubing perfusing an extracellular solution containing (in mM): 149 NaCl, 2 CaCl2, 4 KCl, 1 MgCl2, 5 glucose, 10 HEPES, pH 7.4, 310 mOsm/L. Extracellular solutions at more basic or acidic pHs were made by titrating the above pH 7.4 solution with NaOH or HCl (5 mM MES was added to solutions at pH 6.0 and lower). Pipette electrodes were filled with an intracellular solution containing (in mM): 135 KCl, 4 MgATP, 0.3 Na2GTP, 10 EGTA, and 20 HEPES, pH 7.2, 290 mOsm/L.
(§3) All recordings were performed at room temperature using an Axopatch 200B amplifier and pClamp 11 software (Molecular Devices). Currents were measured by whole-cell patch clamp, digitized at 10 kHz and lowpass filtered at 2 kHz. Series resistance was 75% compensated. Responses were elicited by rapid perfusion of acidic solutions using the SF-77B Fast-Step Perfusion device (Warner Instruments) for 40 ms once every 30 s (unless indicated otherwise) and recorded till steady state was reached. The holding potential was 0 mV unless indicated otherwise.
(§4) Baseline values (i.e., current amplitudes at the conditioning pH) were subtracted to obtain responses evoked by the test pH. Responses were normalized for each cell before averaging (see figure legends for more detail on normalization for each type of experiment). Concentration–response data were fitted to a logistic function of the form: R = (A1–A2)/(1 + (C/C0)^h)+A2, where R is the normalized response, C is either pH or compound concentration, C0 is the pH/concentration at which half-maximal response occurs (pH50 or IC50), h is the Hill coefficient, and A1 and A2 are constants. Kinetic parameters were obtained by fitting the data with either a single or double exponential function. Fitted data are shown as solid, dashed, or dotted curves.

[2] = target: T1, rat ASIC1a; test: pH dependence of steady-state desensitization (whole-cell patch clamp); type: cell-based; conditions: 10 nM PcTx1
Description: as §1, §2, §3, §4

Compound	block of pH 6.0-induced current ([1]; 0 mV) [%]	block of pH 6.0-induced current ([1]; −80 mV) [%]	pH50 of steady-state desensitization [2]
N=C(N)NC(=O)c1nc(Cl)c(N)nc1N [amiloride, reference compound]	62.3 ± 0.7	86.8 ± 1.2	–
PcTx1 [reference compound]	–	–	7.81 ± 0.02

Reference: paper PMC7873226, “Molecular mechanism and structural basis of small-molecule modulation of the gating of acid-sensing ion channel 1” (Communications Biology, 2021)
